Test results: the NIST ThermoML archive (doi:10.1007/s10765-008-0535-5)

Assay: molar heat capacity at constant volume; wn = mass fraction of the nth substance listed
Settings: Liquid, Vacuum adiabatic calorimetry, w2 = 0.5111

FC(F)C(F)(F)F [pentafluoroethane] + FCF
Settings	molar heat capacity at constant volume [J/K/mol]
268.15 K, 3423 kPa	62.96
269.15 K, 4259 kPa	64.11
270.15 K, 5065 kPa	63.82
270.15 K, 5095 kPa	63.25
270.15 K, 5157 kPa	63.82
271.15 K, 5903 kPa	64.9
271.15 K, 5931 kPa	64.04
271.15 K, 5992 kPa	62.96
272.15 K, 6740 kPa	64.18
272.15 K, 6767 kPa	64.61
272.15 K, 6828 kPa	63.25
273.15 K, 7576 kPa	64.54
273.15 K, 7602 kPa	63.82
273.15 K, 7662 kPa	64.04
274.15 K, 8411 kPa	65.12
274.15 K, 8437 kPa	65.19
274.15 K, 8496 kPa	63.82
275.15 K, 9245 kPa	64.9
275.15 K, 9272 kPa	64.9
275.15 K, 9328 kPa	63.75
276.15 K, 10082 kPa	65.77
276.15 K, 10107 kPa	64.83
276.15 K, 10161 kPa	64.25
277.15 K, 10917 kPa	65.84
277.15 K, 10942 kPa	65.62
277.15 K, 10993 kPa	65.05
278.15 K, 11753 kPa	66.05
278.15 K, 11776 kPa	65.55
278.15 K, 11824 kPa	64.4
279.15 K, 12587 kPa	65.69
279.15 K, 12611 kPa	66.12
279.15 K, 12657 kPa	65.33
280.15 K, 13423 kPa	66.92
280.15 K, 13444 kPa	65.12
280.15 K, 13488 kPa	64.9
281.15 K, 14258 kPa	65.69
281.15 K, 14277 kPa	66.63
281.15 K, 14319 kPa	65.69
282.15 K, 15091 kPa	66.92
282.15 K, 15110 kPa	66.27
282.15 K, 15148 kPa	65.55
283.15 K, 15926 kPa	66.63
283.15 K, 15943 kPa	66.05
283.15 K, 15978 kPa	64.76
284.15 K, 16759 kPa	66.56
284.15 K, 16775 kPa	66.34
284.15 K, 16808 kPa	66.05
285.15 K, 17592 kPa	67.2
285.15 K, 17606 kPa	67.06
285.15 K, 17637 kPa	65.77
286.15 K, 18423 kPa	66.77
286.15 K, 18437 kPa	66.7
286.15 K, 18467 kPa	66.41
287.15 K, 19253 kPa	66.2
287.15 K, 19268 kPa	66.7
287.15 K, 19297 kPa	65.19
288.15 K, 20083 kPa	67.35
288.15 K, 20097 kPa	67.28
288.15 K, 20124 kPa	66.05
289.15 K, 20914 kPa	67.35
289.15 K, 20926 kPa	66.7
289.15 K, 20951 kPa	66.27
290.15 K, 21743 kPa	67.49
290.15 K, 21755 kPa	67.28
290.15 K, 21778 kPa	66.12
291.15 K, 22571 kPa	67.28
291.15 K, 22583 kPa	66.7
291.15 K, 22607 kPa	66.05
292.15 K, 23400 kPa	67.35
292.15 K, 23410 kPa	67.35
292.15 K, 23433 kPa	66.63
293.15 K, 24226 kPa	67.13
293.15 K, 24236 kPa	67.06
293.15 K, 24257 kPa	66.2
294.15 K, 25053 kPa	67.42
294.15 K, 25062 kPa	67.42
294.15 K, 25082 kPa	67.28
295.15 K, 25878 kPa	66.84
295.15 K, 25887 kPa	67.13
295.15 K, 25903 kPa	65.05
296.15 K, 5585 kPa	69.44
296.15 K, 5620 kPa	68.57
296.15 K, 5667 kPa	65.84
296.15 K, 26704 kPa	67.92
296.15 K, 26711 kPa	66.99
296.15 K, 26725 kPa	66.48
297.15 K, 6213 kPa	68.72
297.15 K, 6246 kPa	68.86
297.15 K, 6292 kPa	68.14
297.15 K, 27528 kPa	67.28
297.15 K, 27534 kPa	66.63
297.15 K, 27546 kPa	66.2
298.15 K, 6841 kPa	70.08
298.15 K, 6872 kPa	68.28
298.15 K, 6917 kPa	67.78
298.15 K, 28352 kPa	66.99
298.15 K, 28357 kPa	66.84
298.15 K, 28366 kPa	65.48
299.15 K, 7469 kPa	69.08
299.15 K, 7499 kPa	69.29
299.15 K, 7541 kPa	67.28
299.15 K, 29176 kPa	67.56
299.15 K, 29179 kPa	67.49
299.15 K, 29186 kPa	66.05
300.15 K, 8097 kPa	69.15
300.15 K, 8124 kPa	67.85
300.15 K, 8166 kPa	68.07
300.15 K, 29998 kPa	66.56
300.15 K, 29999 kPa	65.55
300.15 K, 30003 kPa	66.7
301.15 K, 8725 kPa	68.57
301.15 K, 8750 kPa	68.07
301.15 K, 8791 kPa	67.92
302.15 K, 9353 kPa	68.14
302.15 K, 9377 kPa	68.86
302.15 K, 9417 kPa	66.99
303.15 K, 9980 kPa	68.57
303.15 K, 10003 kPa	68.28
303.15 K, 10042 kPa	67.2
304.15 K, 10607 kPa	68.72
304.15 K, 10629 kPa	66.92
304.15 K, 10667 kPa	67.49
305.15 K, 11234 kPa	66.92
305.15 K, 11256 kPa	67.42
305.15 K, 11292 kPa	66.05
306.15 K, 11861 kPa	68.14
306.15 K, 11881 kPa	66.99
306.15 K, 11917 kPa	66.2
307.15 K, 12487 kPa	66.77
307.15 K, 12507 kPa	67.28
307.15 K, 12541 kPa	66.92
308.15 K, 13114 kPa	67.06
308.15 K, 13133 kPa	67.35
308.15 K, 13165 kPa	65.84
309.15 K, 13740 kPa	66.92
309.15 K, 13758 kPa	67.13
309.15 K, 13790 kPa	66.12
310.15 K, 14367 kPa	67.13
310.15 K, 14384 kPa	66.05
310.15 K, 14414 kPa	65.91
311.15 K, 14992 kPa	66.48
311.15 K, 15009 kPa	66.2
311.15 K, 15038 kPa	65.84
312.15 K, 15618 kPa	64.9
312.15 K, 15634 kPa	67.13
312.15 K, 15662 kPa	65.26
313.15 K, 16243 kPa	66.7
313.15 K, 16259 kPa	66.2
313.15 K, 16286 kPa	65.26
314.15 K, 16869 kPa	66.2
314.15 K, 16883 kPa	65.98
314.15 K, 16910 kPa	65.26
315.15 K, 17493 kPa	65.77
315.15 K, 17507 kPa	65.84
315.15 K, 17534 kPa	64.54
316.15 K, 18118 kPa	65.77
316.15 K, 18131 kPa	65.12
316.15 K, 18158 kPa	64.9
317.15 K, 18743 kPa	65.48
317.15 K, 18755 kPa	64.33
317.15 K, 18781 kPa	64.47
318.15 K, 19367 kPa	64.97
318.15 K, 19379 kPa	64.9
318.15 K, 19404 kPa	64.25
319.15 K, 19990 kPa	65.05
319.15 K, 20003 kPa	65.12
319.15 K, 20027 kPa	64.61
320.15 K, 20613 kPa	63.75
320.15 K, 20627 kPa	65.77
320.15 K, 20649 kPa	64.33
321.15 K, 21236 kPa	64.69
321.15 K, 21250 kPa	64.69
321.15 K, 21272 kPa	63.61
322.15 K, 21858 kPa	64.69
322.15 K, 21873 kPa	63.9
322.15 K, 21894 kPa	64.04
323.15 K, 22480 kPa	63.9
323.15 K, 22495 kPa	63.9
323.15 K, 22516 kPa	63.61
324.15 K, 23103 kPa	64.33
324.15 K, 23117 kPa	64.97
324.15 K, 23137 kPa	62.6
325.15 K, 23725 kPa	64.25
325.15 K, 23738 kPa	63.39
325.15 K, 23758 kPa	63.1
326.15 K, 24347 kPa	64.33
326.15 K, 24361 kPa	64.9
326.15 K, 24379 kPa	62.74
327.15 K, 24970 kPa	63.75
327.15 K, 24981 kPa	63.1
327.15 K, 25000 kPa	63.68
328.15 K, 25590 kPa	62.96
328.15 K, 25601 kPa	63.1
328.15 K, 25620 kPa	62.17
